Values after ≈ are worked out from the molar mass of the structure shown.
Tests used:
THP-1 = experiment: Cytotoxicity against human THP1 cells after 24 hrs by MTS assay; format: cell-based; settings: THP-1, 24 h
Streptococcus pyogenes [1] = experiment: Antibacterial activity against inducible resistance to macrolide, licosamide and streptogramin Streptococcus pyogenes 11 by broth microdilution method; format: functional
HepG2 = experiment: Cytotoxicity against human HepG2 cells after 24 hrs by MTS assay; format: cell-based; settings: HepG2, 24 h
Streptococcus pneumoniae [2] = experiment: Antibacterial activity against inducible resistance to macrolide and constitutive resistance to lincosamide Streptococcus pneumoniae 134 GR M by broth microdilution method; format: functional
Staphylococcus aureus [3] = experiment: Antibacterial activity against efflux-mediated macrolide-resistance Staphylococcus aureus PK1 by broth microdilution method; format: functional
Streptococcus pneumoniae [4] = experiment: Antibacterial activity against constitutive MLS resistance Streptococcus pneumoniae 58 by broth microdilution method; format: functional
Streptococcus pneumoniae [5] = experiment: Antibacterial activity against efflux-mediated macrolide-resistance Streptococcus pneumoniae Ci137 by broth microdilution method; format: functional
Streptococcus pyogenes [6] = experiment: Antibacterial activity against efflux-mediated macrolide-resistance Streptococcus pyogenes 2 by broth microdilution method; format: functional
Haemophilus influenzae = experiment: Antibacterial activity against Haemophilus influenzae ATCC 49247 by broth microdilution method; format: functional
Staphylococcus aureus [7] = experiment: Antibacterial activity against inducible resistance to macrolide, licosamide, and streptogramin Staphylococcus aureus 90265/97 by broth microdilution method; format: functional
Streptococcus pyogenes [8] = experiment: Antibacterial activity against constitutive MLS resistance Streptococcus pyogenes 166 GR-Micro by broth microdilution method; format: functional

Work on `CC[C@H]1OC(=O)[C@H](C)[C@@H](O[C@H]2CC(C)(OC)[C@@H](OCCCOCCCc3ccc4c(c3)c(=O)c(C(=O)O)cn4C(C)(C)C)[C@H](C)O2)[C@H](C)[C@@H](O[C@@H]2O[C@H](C)C[C@H](N(C)C)[C@H]2O)[C@](C)(O)C[C@@H](C)CN(C)[C@H](C)[C@@H](O)[C@]1(C)O` (some centres not stated) yielded an IC50 (THP-1) of 40 µM, an MIC (Streptococcus pyogenes [1]; read-out: MIC) of no more than 0.125 µg/mL and an IC50 (HepG2) greater than 50 µM. It also gave an MIC (Streptococcus pneumoniae [2]) of no more than 0.125 µg/mL, an MIC (Staphylococcus aureus [3]) of no more than 0.125 µg/mL and an MIC (Streptococcus pneumoniae [4]) of no more than 0.125 µg/mL. It also gave an MIC (Streptococcus pneumoniae [5]; read-out: MIC) of no more than 0.125 µg/mL, an MIC (Streptococcus pyogenes [6]) of no more than 0.125 µg/mL and an MIC (Haemophilus influenzae) of 2 µg/mL (≈ 1.83 µM). It also gave an MIC (Staphylococcus aureus [7]) of no more than 0.125 µg/mL and an MIC (Streptococcus pyogenes [8]) of no more than 0.125 µg/mL.
In the case of `CC[C@H]1OC(=O)[C@H](C)[C@@H](O[C@H]2C[C@@](C)(OC)[C@@H](OCCCOCCCCCc3ccc4c(c3)c(=O)c(C(=O)O)cn4CC)[C@H](C)O2)[C@H](C)[C@@H](O[C@@H]2O[C@H](C)C[C@H](N(C)C)[C@H]2O)[C@](C)(O)C[C@@H](C)CN(C)[C@H](C)[C@@H](O)[C@]1(C)O`, the IC50 (THP-1) is reported as 9 µM, the MIC (Streptococcus pyogenes [1]; read-out: MIC) is reported as no more than 0.125 µg/mL and the IC50 (HepG2) is reported as 20 µM. It also gave an MIC (Streptococcus pneumoniae [2]) of 0.5 µg/mL (≈ 0.458 µM), an MIC (Staphylococcus aureus [3]) of no more than 0.125 µg/mL and an MIC (Streptococcus pneumoniae [4]) of no more than 0.125 µg/mL. It also gave an MIC (Streptococcus pneumoniae [5]; read-out: MIC) of no more than 0.125 µg/mL, an MIC (Streptococcus pyogenes [6]) of no more than 0.125 µg/mL and an MIC (Haemophilus influenzae) of 2 µg/mL (≈ 1.83 µM). For the same molecule, the MIC (Staphylococcus aureus [7]) was no more than 0.125 µg/mL and the MIC (Streptococcus pyogenes [8]) was 0.25 µg/mL (≈ 0.229 µM).
Molecule `CC[C@H]1OC(=O)[C@H](C)[C@@H](O[C@H]2C[C@@](C)(OC)[C@@H](OCCCOCCCCc3ccc4c(c3)c(=O)c(C(=O)O)cn4N(C)C)[C@H](C)O2)[C@H](C)[C@@H](O[C@@H]2O[C@H](C)C[C@H](N(C)C)[C@H]2O)[C@](C)(O)C[C@@H](C)CN(C)[C@H](C)[C@@H](O)[C@]1(C)O` has an IC50 (THP-1) of 20 µM, an MIC (Streptococcus pyogenes [1]; read-out: MIC) of no more than 0.125 µg/mL and an IC50 (HepG2) of 42 µM. For the same molecule, the MIC (Streptococcus pneumoniae [2]) was 0.5 µg/mL (≈ 0.457 µM), the MIC (Staphylococcus aureus [3]) was no more than 0.125 µg/mL and the MIC (Streptococcus pneumoniae [4]) was 0.25 µg/mL (≈ 0.229 µM). The MIC (Streptococcus pneumoniae [5]; read-out: MIC) was no more than 0.125 µg/mL, the MIC (Streptococcus pyogenes [6]) was no more than 0.125 µg/mL and the MIC (Haemophilus influenzae) was 4 µg/mL (≈ 3.66 µM). For the same molecule, the MIC (Staphylococcus aureus [7]) was no more than 0.125 µg/mL and the MIC (Streptococcus pyogenes [8]) was 0.5 µg/mL (≈ 0.457 µM).
Work on `CC[C@H]1OC(=O)[C@H](C)[C@@H](O[C@H]2C[C@@](C)(OC)[C@@H](OCCCOCCCc3ccc4c(c3)c(=O)c(C(=O)O)cn4CC)[C@H](C)O2)[C@H](C)[C@@H](O[C@@H]2O[C@H](C)C[C@H](N(C)C)[C@H]2O)[C@](C)(O)C[C@@H](C)CN(C)[C@H](C)[C@@H](O)[C@]1(C)O` yielded an IC50 (THP-1) greater than 50 µM, an MIC (Streptococcus pyogenes [1]; read-out: MIC) of no more than 0.125 µg/mL and an IC50 (HepG2) greater than 50 µM. The MIC (Streptococcus pneumoniae [2]) was no more than 0.125 µg/mL, the MIC (Staphylococcus aureus [3]) was no more than 0.125 µg/mL and the MIC (Streptococcus pneumoniae [4]) was no more than 0.125 µg/mL. The MIC (Streptococcus pneumoniae [5]; read-out: MIC) was no more than 0.125 µg/mL, the MIC (Streptococcus pyogenes [6]) was no more than 0.125 µg/mL and the MIC (Haemophilus influenzae) was 1 µg/mL (≈ 0.94 µM). The MIC (Staphylococcus aureus [7]) was no more than 0.125 µg/mL and the MIC (Streptococcus pyogenes [8]) was no more than 0.125 µg/mL.
Work on `CC[C@H]1OC(=O)[C@H](C)C(=O)[C@H](C)[C@@H](O[C@@H]2O[C@H](C)C[C@H](N(C)C)[C@H]2O)[C@](C)(OC)C[C@@H](C)C(=O)[C@H](C)[C@H]2N(CCCCn3cnc(-c4cccnc4)c3)C(=O)O[C@]12C` [TELITHROMYCIN] yielded an MIC (Streptococcus pyogenes [1]; read-out: MIC) of no more than 0.125 µg/mL, an MIC (Streptococcus pneumoniae [2]) of 0.25 µg/mL (≈ 0.308 µM) and an MIC (Staphylococcus aureus [3]) of 0.125 µg/mL (≈ 0.154 µM). It also gave an MIC (Streptococcus pneumoniae [4]) of 0.25 µg/mL (≈ 0.308 µM), an MIC (Streptococcus pneumoniae [5]; read-out: MIC) of 0.5 µg/mL (≈ 0.616 µM) and an MIC (Streptococcus pyogenes [6]) of 0.5 µg/mL (≈ 0.616 µM). The MIC (Haemophilus influenzae) was 1 µg/mL (≈ 1.23 µM), the MIC (Staphylococcus aureus [7]) was no more than 0.125 µg/mL and the MIC (Streptococcus pyogenes [8]) was 16 µg/mL (≈ 19.7 µM).
With `CC[C@H]1OC(=O)[C@H](C)[C@@H](O[C@H]2C[C@@](C)(OC)[C@@H](O)[C@H](C)O2)[C@H](C)[C@@H](O[C@@H]2O[C@H](C)C[C@H](N(C)C)[C@H]2O)[C@](C)(O)C[C@@H](C)CN(C)[C@H](C)[C@@H](O)[C@]1(C)O` [AZITHROMYCIN] the MIC (Streptococcus pyogenes [1]; read-out: MIC) was 16 µg/mL (≈ 21.4 µM), the MIC (Streptococcus pneumoniae [2]) was greater than 64 µg/mL and the MIC (Staphylococcus aureus [3]) was greater than 64 µg/mL. It also gave an MIC (Streptococcus pneumoniae [4]) greater than 64 µg/mL, an MIC (Streptococcus pneumoniae [5]; read-out: MIC) of 8 µg/mL (≈ 10.7 µM) and an MIC (Streptococcus pyogenes [6]) of 8 µg/mL (≈ 10.7 µM). For the same molecule, the MIC (Haemophilus influenzae) was 1 µg/mL (≈ 1.34 µM), the MIC (Staphylococcus aureus [7]) was greater than 64 µg/mL and the MIC (Streptococcus pyogenes [8]) was greater than 64 µg/mL.
In the case of `CC[C@H]1OC(=O)[C@H](C)[C@@H](O[C@H]2C[C@@](C)(OC)[C@@H](OCCCOCCCc3cc4c5c(c3)c(=O)c(C(=O)O)cn5C(C)(C)CO4)[C@H](C)O2)[C@H](C)[C@@H](O[C@@H]2O[C@H](C)C[C@H](N(C)C)[C@H]2O)[C@](C)(O)C[C@@H](C)CN(C)[C@H](C)[C@@H](O)[C@]1(C)O`, the IC50 (THP-1) is reported as 40 µM, the MIC (Streptococcus pyogenes [1]) is reported as less than 0.02 µg/mL and the IC50 (HepG2) is reported as greater than 50 µM. The MIC (Streptococcus pneumoniae [2]) was no more than 0.125 µg/mL, the MIC (Staphylococcus aureus [3]) was 0.13 µg/mL (≈ 0.117 µM) and the MIC (Streptococcus pneumoniae [4]) was no more than 0.125 µg/mL. The MIC (Streptococcus pneumoniae [5]) was less than 0.02 µg/mL, the MIC (Haemophilus influenzae) was 2 µg/mL (≈ 1.81 µM) and the MIC (Staphylococcus aureus [7]) was 0.06 µg/mL (≈ 0.0542 µM). The MIC (Streptococcus pyogenes [8]) was 1 µg/mL (≈ 0.904 µM).
